Test results as given in ChEMBL document CHEMBL5634193, “Discovery of CVN293, a Brain Permeable KCNK13 (THIK-1) Inhibitor Suitable for Clinical Assessment” (ACS Med Chem Lett, 2024).
pIC50: −log10 of the molar value. Values after ≈ are worked out from the molar mass of the structure shown.

Key:
[1] = Kinetic aqueous solubility of compound at pH 7.4; assay type: physicochemical; conditions: buffer, read-out: Kinetic_solubility
[2] = Unbound drug concentration in C57BL/6 mouse plasma at 10 mg/kg, po measured after 4 hrs by LC-MS/MS analysis; assay type: ADME, organism-based; conditions: in vivo
[3] = Ratio of drug concentration in brain to plasma C57BL/6 mouse at 10 mg/kg, po measured after 4 hrs by LC-MS/MS analysis; assay type: ADME, organism-based; conditions: brain and plasma, read-out: BPR
[4] = target: T1, Potassium channel subfamily K member 13 (Homo sapiens, UniProt Q9HB14); assay: Inhibition of human KCNK13 transfected in HEK293 cells; assay type: cell-based
T1 sequence (Q9HB14 whole entry): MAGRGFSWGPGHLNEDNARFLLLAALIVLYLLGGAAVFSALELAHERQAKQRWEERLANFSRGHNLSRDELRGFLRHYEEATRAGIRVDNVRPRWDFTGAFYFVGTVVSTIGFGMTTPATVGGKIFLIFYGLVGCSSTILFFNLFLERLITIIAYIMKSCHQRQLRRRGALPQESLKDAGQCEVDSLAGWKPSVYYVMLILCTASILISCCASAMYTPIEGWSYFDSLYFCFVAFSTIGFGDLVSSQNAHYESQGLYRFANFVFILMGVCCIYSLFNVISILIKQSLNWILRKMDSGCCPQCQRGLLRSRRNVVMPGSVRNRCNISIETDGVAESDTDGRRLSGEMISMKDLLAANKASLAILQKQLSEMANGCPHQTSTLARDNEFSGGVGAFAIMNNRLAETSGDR

[5] = Ratio of unbound drug concentration in brain to plasma C57BL/6 mouse at 10 mg/kg, po measured after 4 hrs by LC-MS/MS analysis; assay type: ADME, organism-based; conditions: brain and plasma, read-out: K(p,uu,brain)
[6] = Protein binding in mouse brain assessed as unbound fraction by equilibrium dialysis; assay type: ADME, tissue-based
[7] = Protein binding in mouse plasma assessed as unbound fraction by equilibrium dialysis; assay type: ADME, cell-free
[8] = Unbound drug concentration in C57BL/6 mouse brain at 10 mg/kg, po measured after 4 hrs by LC-MS/MS analysis; assay type: ADME, organism-based; conditions: in vivo
[9] = Metabolic stability in mouse liver microsomes assessed as intrinsic clearance; assay type: ADME, Microsome; conditions: read-out: CLH
[10] = Metabolic stability in human liver microsomes assessed as intrinsic clearance; assay type: ADME, Microsome; conditions: read-out: CLH
[11] = Metabolic stability in rat liver microsomes assessed as intrinsic clearance; assay type: ADME, Microsome; conditions: read-out: CLH
[12] = target: T2, Potassium channel subfamily K member 13 (Mus musculus, UniProt Q8R1P5); assay: Inhibition of mouse KCNK13 transfected in HEK293 cells; assay type: cell-based
T2 sequence (Q8R1P5 whole entry): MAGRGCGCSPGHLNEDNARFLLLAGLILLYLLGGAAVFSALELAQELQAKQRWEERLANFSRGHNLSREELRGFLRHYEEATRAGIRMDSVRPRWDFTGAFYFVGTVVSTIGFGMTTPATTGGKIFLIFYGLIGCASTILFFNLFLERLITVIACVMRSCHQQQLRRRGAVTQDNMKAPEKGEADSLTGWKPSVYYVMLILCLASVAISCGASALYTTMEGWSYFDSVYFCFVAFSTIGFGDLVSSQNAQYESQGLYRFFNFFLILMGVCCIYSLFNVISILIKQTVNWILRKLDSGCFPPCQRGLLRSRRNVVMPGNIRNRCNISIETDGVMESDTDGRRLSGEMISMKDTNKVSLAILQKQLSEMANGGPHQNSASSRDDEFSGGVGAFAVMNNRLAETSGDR

## Nc1nonc1-c1nc2ccc(F)c(F)c2n1Cc1cccnn1
[1]
  solubility kinetic: 3.9 µM (≈ 1.28 µg/mL)
[2]
  Cp(f): 80 nM
[3]
  Kp at 4 h: 1.17
[4]
  pIC50: 7.30
[5]
  Kp uu at 4 h: 0.7
[6]
  fraction unbound: 0.097
[7]
  fraction unbound: 0.161
[8]
  Cp(f): 56 nM
[9]
  microsomal CLint: < 9.6 µL/min/mg
[10]
  microsomal CLint: < 9.6 µL/min/mg
[11]
  microsomal CLint: 15.4 µL/min/mg

## c1ccc2c(c1)nc(-c1ccn[nH]1)n2Cc1ccncc1
[4]
  pIC50: 5.04

## Nc1ncccc1-c1nc2ccccc2n1Cc1ccncc1
[4]
  pIC50: < 4.66

## Nc1nonc1-c1nc2ccccc2n1Cc1ccncc1
[10]
  microsomal CLint: 24 µL/min/mg
[11]
  microsomal CLint: 56 µL/min/mg

## Nc1nonc1-c1nc2cccc(F)c2n1Cc1ccncn1
[1]
  solubility kinetic: 9.9 µM (≈ 3.08 µg/mL)
[4]
  pIC50: 7.34
[6]
  fraction unbound: 0.091
[7]
  fraction unbound: 0.111
[9]
  microsomal CLint: 30 µL/min/mg
[10]
  microsomal CLint: 10 µL/min/mg
[11]
  microsomal CLint: 77 µL/min/mg

## Nc1nonc1-c1nc2cccc(F)c2n1Cc1ccncc1
[1]
  solubility kinetic: 3.7 µM (≈ 1.15 µg/mL)
[4]
  pIC50: 7.34
[9]
  microsomal CLint: 66 µL/min/mg
[10]
  microsomal CLint: 14 µL/min/mg
[11]
  microsomal CLint: 22 µL/min/mg

## CC(=O)Nc1nonc1-c1nc2ccccc2n1Cc1ccncc1
[4]
  pIC50: < 4.66
[10]
  microsomal CLint: 34 µL/min/mg
[11]
  microsomal CLint: 45 µL/min/mg

## c1ccc2c(c1)nc(-c1ncc[nH]1)n2Cc1ccncc1
[4]
  pIC50: 5.46

## Nc1nonc1-c1nc2cccc(F)c2n1Cc1cncnc1
[1]
  solubility kinetic: 6.5 µM (≈ 2.02 µg/mL)
[4]
  pIC50: 7.31
[6]
  fraction unbound: 0.057
[7]
  fraction unbound: 0.129
[9]
  microsomal CLint: 18 µL/min/mg
[10]
  microsomal CLint: 10 µL/min/mg
[12]
  pIC50: 7.59
[11]
  microsomal CLint: 24 µL/min/mg

## c1ccc2c(c1)nc(-c1cocn1)n2Cc1ccncc1
[4]
  pIC50: 5.53

## Cc1nonc1-c1nc2ccccc2n1Cc1ccncc1
[4]
  pIC50: 7.05
[10]
  microsomal CLint: 45 µL/min/mg
[11]
  microsomal CLint: 47 µL/min/mg

## Nc1nonc1-c1nc2ccc(F)cc2n1Cc1ccncc1
[1]
  solubility kinetic: < 0.3 µM
[4]
  pIC50: 7.47
[9]
  microsomal CLint: 58 µL/min/mg
[10]
  microsomal CLint: 37 µL/min/mg
[11]
  microsomal CLint: 10 µL/min/mg

## Nc1nonc1-c1nc2cccc(F)c2n1Cc1ccnnc1
[1]
  solubility kinetic: 10.4 µM (≈ 3.24 µg/mL)
[2]
  Cp(f): 9 nM
[3]
  Kp at 4 h: 0.68
[4]
  pIC50: 7.30
[5]
  Kp uu at 4 h: 1.9
[6]
  fraction unbound: 0.128
[7]
  fraction unbound: 0.188
[8]
  Cp(f): 18 nM
[9]
  microsomal CLint: 13.9 µL/min/mg
[10]
  microsomal CLint: 9.6 µL/min/mg
[11]
  microsomal CLint: 31.6 µL/min/mg

## Nc1nonc1-c1nc2cc(F)ccc2n1Cc1ccncc1
[1]
  solubility kinetic: < 0.3 µM
[4]
  pIC50: 7.38
[9]
  microsomal CLint: 28 µL/min/mg
[10]
  microsomal CLint: 19 µL/min/mg
[11]
  microsomal CLint: 14 µL/min/mg

## N#Cc1ccc(Cn2c(-c3nonc3N)nc3cccc(F)c32)nn1
[1]
  solubility kinetic: 8.4 µM (≈ 2.82 µg/mL)
[4]
  pIC50: 7.30
[6]
  fraction unbound: 0.064
[7]
  fraction unbound: 0.071
[9]
  microsomal CLint: 37 µL/min/mg
[10]
  microsomal CLint: 9.6 µL/min/mg
[12]
  pIC50: 7.46
[11]
  microsomal CLint: 40 µL/min/mg

## Nc1nonc1-c1nc2cccc(F)c2n1Cc1cnccn1
[1]
  solubility kinetic: 10 µM (≈ 3.11 µg/mL)
[2]
  Cp(f): 9 nM
[3]
  Kp at 4 h: 0.56
[4]
  pIC50: 7.33
[5]
  Kp uu at 4 h: 2.2
[6]
  fraction unbound: 0.077
[7]
  fraction unbound: 0.138
[8]
  Cp(f): 18 nM
[9]
  microsomal CLint: 50 µL/min/mg
[10]
  microsomal CLint: 21 µL/min/mg
[12]
  pIC50: 7.21
[11]
  microsomal CLint: 68 µL/min/mg

## Nc1nonc1-c1nc2cccc(F)c2n1Cc1ccc(C(F)(F)F)nn1
[1]
  solubility kinetic: 1.6 µM (≈ 0.607 µg/mL)
[4]
  pIC50: 7.08
[6]
  fraction unbound: 0.024
[7]
  fraction unbound: 0.035
[9]
  microsomal CLint: 245 µL/min/mg
[10]
  microsomal CLint: 18.3 µL/min/mg
[12]
  pIC50: 7.13

## Nc1nonc1-c1nc2c(F)cccc2n1Cc1ccncc1
[1]
  solubility kinetic: < 0.3 µM
[4]
  pIC50: 7.26
[9]
  microsomal CLint: 74 µL/min/mg
[10]
  microsomal CLint: 25 µL/min/mg
[11]
  microsomal CLint: 27 µL/min/mg

## Nc1nonc1-c1nc2c(F)ccc(F)c2n1Cc1cccnn1
[1]
  solubility kinetic: 12.9 µM (≈ 4.25 µg/mL)
[2]
  Cp(f): 793 nM
[3]
  Kp at 4 h: 0.96
[4]
  pIC50: 7.43
[5]
  Kp uu at 4 h: 0.8
[6]
  fraction unbound: 0.13
[7]
  fraction unbound: 0.159
[8]
  Cp(f): 630 nM
[9]
  microsomal CLint: 10.1 µL/min/mg
[10]
  microsomal CLint: 9.6 µL/min/mg
[12]
  pIC50: 7.38
[11]
  microsomal CLint: 12.6 µL/min/mg
